What all share (type): cell-based
In test [1] the test system is AsPC-1 (homozygous mutant KRAS G12D human pancreatic cell line). Briefly: KRAS 3D-Cell Proliferation Assay, AsPC-1 (Example 503). To be noted: Homo sapiens, ASPC1, 168 h, AsPC-1 3D culture, 7 days, CellTiter-Glo 3D; read-out: Prolif AsPC-1 3D ATP IC50. The method in brief:
(§1)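 IC50 values derive from 4-parameter Hill fits of normalized luminescence, where DMSO sets 0% and 1 μM staurosporine 100% inhibition. 3D cultures in RPMI-1640 with 10% fetal bovine serum were exposed to compound for 7 days before CellTiter-Glo 3D lysis.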
For orientation: In ATP-based viability assays light output follows the ATP content of the culture.

Test [2] concerns HPAC (homozygous mutant KRAS G12D human pancreatic cell line). Briefly: KRAS 3D-Cell Proliferation Assay, HPAC (Example 503). The settings on record: Homo sapiens, HPAC, 168 h, HPAC 3D culture, 7 days, CellTiter-Glo 3D; read-out: Prolif HPAC 3D ATP IC50. The method, boiled down:
as §1

The subject of test [3] is PC-9 (KRAS wild type human lung adenocarcinoma cell line). Nature of the test: KRAS 3D-Cell Proliferation Assay, PC-9 (Example 503). To be noted: 168 h, PC-9 3D culture, 7 days, CellTiter-Glo 3D, read-out: Prolif PC9 3D ATP IC50. The method in brief:
as §1

Test [4] relates to H1975 (KRAS wild type human lung adenocarcinoma cell line). Nature of the test: KRAS 3D-Cell Proliferation Assay, H1975 (Example 503). To be noted: Homo sapiens, NCI-H1975, 168 h, H1975 3D culture, 7 days, CellTiter-Glo 3D; read-out: Prolif H1975 3D ATP IC50. The method in brief: as §1

Turning to `C#Cc1cccc2cncc(-c3nc4c5c(nc(OC[C@@]67CCCN6C[C@H](F)C7)nc5c3F)N3C[C@H]5CC[C@H](N5)[C@H]3[C@H](C)O4)c12` [Compound 39, (5S,5aS,6S,9R)-2-(5-Ethynylisoquinolin-4-yl)-1-fluoro-12-(((2R,7aS)-2-fluorotetrahydro-1H-pyrrolizin-7a(5H)-yl)methoxy)-5-methyl-5a,6,7,8,9,10-hexahydro-5H-4-oxa-3,10a,11,13,14-pentaaza-6,9-methanonaphtho[1,8-ab]heptalene], the IC50 (usually the concentration at which inhibition is half-maximal) in test [1] was 55.8 nM; in test [2], 35.8 nM; in test [3], ≥ 20000 nM; in test [4], 3970 nM.
Regarding `C#Cc1cccc2cncc(-c3nc4c5c(nc(OC[C@@]67CCCN6CC6(CC6(F)F)C7)nc5c3F)N3C[C@H]5CC[C@H](N5)[C@H]3[C@H](C)O4)c12` (stereo partly drawn) [Compound 40, (5S,5aS,6S,9R)-12-(((7a′S)-2,2-difluorodihydro-1′H,3′H-spiro[cyclopropane-1,2′-pyrrolizin]-7a′(5′H)-yl)methoxy)-2-(5-ethynylisoquinolin-4-yl)-1-fluoro-5-methyl-5a,6,7,8,9,10-hexahydro-5H-4-oxa-3,10a,11,13,14-pentaaza-6,9-methanonaphtho[1,8-ab]heptalene], the half-inhibitory concentration (IC50) in test [1] worked out at 27.7 nM; in test [2], 36 nM; in test [3] it was 15700 nM; in test [4], 20000 nM.
For the molecule `Cc1cc(N)nc(-c2nc3c4c(nc(OC[C@@]56CCCN5C[C@H](F)C6)nc4c2F)N2C[C@H]4CC[C@H](N4)[C@H]2[C@H](C)O3)c1C(F)(F)F` [Compound 43, 6-((5S,5aS,6S,9R)-1-Fluoro-12-(((2R,7aS)-2-fluorotetrahydro-1H-pyrrolizin-7a(5H)-yl)methoxy)-5-methyl-5a,6,7,8,9,10-hexahydro-5H-4-oxa-3,10a,11,13,14-pentaaza-6,9-methanonaphtho[1,8-ab]heptalen-2-yl)-4-methyl-5-(trifluoromethyl)pyridin-2-amine], the concentration for half-maximal inhibition (IC50) in test [1] is 43.4 nM; in test [2] it was 16.8 nM; in test [3], ≥ 20000 nM; in test [4], 4290 nM.
For the molecule `Cc1cc(N)nc(-c2nc3c4c(nc(OC[C@@]56CCCN5CC5(CC5(F)F)C6)nc4c2F)N2C[C@H]4CC[C@H](N4)[C@H]2[C@H](C)O3)c1C(F)(F)F` (stereo partly drawn) [Compound 47, 6-((5S,5aS,6S,9R)-12-(((7a′S)-2,2-difluorodihydro-1′H,3′H-spiro[cyclopropane-1,2′-pyrrolizin]-7a′(5′H)-yl)methoxy)-1-fluoro-5-methyl-5a,6,7,8,9,10-hexahydro-5H-4-oxa-3,10a,11,13,14-pentaaza[6,9]methanonaphtho[1,8-ab]heptalen-2-yl)-4-methyl-5-(trifluoromethyl)pyridin-2-amine], the IC50 in test [1] came out at 3.97 nM; in test [2], 2.95 nM; in test [3], 8840 nM; in test [4], 1530 nM.
Turning to `C=C1CN2CCC[C@@]2(COc2nc3c4c(nc(-c5nc(N)cc(C)c5C(F)(F)F)c(F)c4n2)O[C@@H](C)[C@@H]2[C@@H]4CC[C@H](CN32)N4)C1` [Compound 48, 6-((5S,5aS,6S,9R)-1-fluoro-5-methyl-12-(((S)-2-methylenetetrahydro-1H-pyrrolizin-7a(5H)-yl)methoxy)-5a,6,7,8,9,10-hexahydro-5H-4-oxa-3,10a,11,13,14-pentaaza-6,9-methanonaphtho[1,8-ab]heptalen-2-yl)-4-methyl-5-(trifluoromethyl)pyridin-2-amine], the IC50 is 8.24 nM in test [1], 5.52 nM in test [2], ≥ 20000 nM in test [3] and 5760 nM in test [4].
Consider `C#Cc1cccc2cc(O)cc(-c3nc4c5c(nc(OC[C@@]67CCCN6C[C@H](F)C7)nc5c3F)N3C[C@H]5CC[C@H](CN5CCCF)[C@H]3CO4)c12` [Compound 50, 5-Ethynyl-4-((5aS,6R,9R)-1-fluoro-14-(3-fluoropropyl)-12-(((2R,7aS)-2-fluorotetrahydro-1H-pyrrolizin-7a(5H)-yl)methoxy)-5a,6,7,8,9,10-hexahydro-5H-4-oxa-3,10a,11,13,14-pentaaza-6,9-ethanonaphtho[1,8-ab]heptalen-2-yl)naphthalen-2-ol], for which the IC50 in test [1] is 13 nM; in test [2], 25.8 nM; in test [3], 4910 nM; in test [4] it was 455 nM.
On to `C#Cc1cccc2cc(O)cc(-c3nc4c5c(nc(OC[C@@]67CCCN6C[C@H](F)C7)nc5c3F)N3C[C@H]5CC[C@H](CN5CC5COC5)[C@H]3CO4)c12` [Compound 51, 5-ethynyl-4-((5aS,6R,9R)-1-fluoro-12-(((2R,7aS)-2-fluorotetrahydro-1H-pyrrolizin-7a(5H)-yl)methoxy)-14-(oxetan-3-ylmethyl)-5a,6,7,8,9,10-hexahydro-5H-4-oxa-3,10a,11,13,14-pentaaza-6,9-ethanonaphtho[1,8-ab]heptalen-2-yl)naphthalen-2-ol], for which the half-inhibitory concentration (IC50) in test [1] amounted to 51.2 nM; in test [2], 73 nM; in test [3], 19500 nM; in test [4], 1820 nM.
`C#Cc1cccc2cc(O)cc(-c3nc4c5c(ncnc5c3F)N3C[C@H]5CC[C@H](N5)[C@H]3[C@H](C)O4)c12` [Compound 54, 5-ethynyl-4-((5S,5aS,6S,9R)-1-fluoro-5-methyl-5a,6,7,8,9,10-hexahydro-5H-4-oxa-3,10a,11,13,14-pentaaza-6,9-methanonaphtho[1,8-ab]heptalen-2-yl)naphthalen-2-ol]: the concentration for half-maximal inhibition (IC50) is 2090 nM in test [1], 3420 nM in test [2], ≥ 20000 nM in test [3] and 20000 nM in test [4].
For the molecule `C=C1CN2CCC[C@@]2(COc2nc3c4c(nc(-c5cc(N)c(F)c(C)c5C(F)(F)F)c(F)c4n2)O[C@@H](C)[C@@H]2[C@@H]4CC[C@H](CN32)N4)C1` [Compound 57, 2-Fluoro-5-((5S,5aS,6S,9R)-1-fluoro-5-methyl-12-(((S)-2-methylenetetrahydro-1H-pyrrolizin-7a(5H)-yl)methoxy)-5a,6,7,8,9,10-hexahydro-5H-4-oxa-3,10a,11,13,14-pentaaza-6,9-methanonaphtho[1,8-ab]heptalen-2-yl)-3-methyl-4-(trifluoromethyl) aniline], the IC50 in test [1] amounted to 0.361 nM; in test [2] it was 2.59 nM; in test [3] it was 3110 nM; in test [4], 251 nM.
The corresponding values for `Cc1cc(N)cc(-c2nc3c4c(nc(OC[C@]56CCN5CC(F)(F)C6)nc4c2F)N2C[C@H]4CC[C@H](N4)[C@H]2[C@H](C)O3)c1C(F)(F)F` [Compound 60, 3-((5S,5aS,6S,9R)-12-(((R)-3,3-Difluoro-1-azabicyclo[3.2.0]heptan-5-yl)methoxy)-1-fluoro-5-methyl-5a,6,7,8,9,10-hexahydro-5H-4-oxa-3,10a,11,13,14-pentaaza-6,9-methanonaphtho[1,8-ab]heptalen-2-yl)-5-methyl-4-(trifluoromethyl)aniline] are 3.48 nM, 2.59 nM, 16500 nM and 720 nM.
The corresponding values for `Cc1c(F)c(N)cc(-c2nc3c4c(nc(OC[C@@H]5CC(F)(F)CN5C)nc4c2F)N2C[C@H]4CC[C@H](N4)[C@H]2[C@H](C)O3)c1C(F)(F)F` [Compound 65, 5-((5S,5aS,6S,9R)-12-(((S)-4,4-Difluoro-1-methylpyrrolidin-2-yl)methoxy)-1-fluoro-5-methyl-5a,6,7,8,9,10-hexahydro-5H-4-oxa-3,10a,11,13,14-pentaaza-6,9-methanonaphtho[1,8-ab]heptalen-2-yl)-2-fluoro-3-methyl-4-(trifluoromethyl)aniline] are 64.3 nM, 19.6 nM, 7530 nM and 7960 nM.
In the case of `Cc1c(F)c(N)cc(-c2nc3c4c(nc(OC[C@H]5CC(F)(F)CN5C)nc4c2F)N2C[C@H]4CC[C@H](N4)[C@H]2[C@H](C)O3)c1C(F)(F)F` [Compound 66, 5-((5S,5aS,6S,9R)-12-(((R)-4,4-difluoro-1-methylpyrrolidin-2-yl)methoxy)-1-fluoro-5-methyl-5a,6,7,8,9,10-hexahydro-5H-4-oxa-3,10a,11,13,14-pentaaza-6,9-methanonaphtho[1,8-ab]heptalen-2-yl)-2-fluoro-3-methyl-4-(trifluoromethyl)aniline], the concentration for half-maximal inhibition (IC50) was determined as 41.4 nM in test [1], 27.6 nM in test [2], 4780 nM in test [3] and 7150 nM in test [4].
For the molecule `Cc1c(F)c(N)cc(-c2nc3c4c(nc(OC[C@@]56CCCN5C[C@H](F)C6)nc4c2F)N2C[C@H]4CC[C@H](N4)[C@H]2[C@H](C)O3)c1Cl` [Compound 76, 4-Chloro-2-fluoro-5-((5S,5aS,6S,9R)-1-fluoro-12-(((2R,7aS)-2-fluorotetrahydro-1H-pyrrolizin-7a(5H)-yl)methoxy)-5-methyl-5a,6,7,8,9,10-hexahydro-5H-4-oxa-3,10a,11,13,14-pentaaza-6,9-methanonaphtho[1,8-ab]heptalen-2-yl)-3-methylaniline], the IC50 in test [1] worked out at 14.1 nM; in test [2] it was 4.62 nM; in test [3], 5710 nM; in test [4], 248 nM.

The record behind these values is patent US12338256B2, “Aza-tetracyclic oxazepine compounds and uses thereof” (Genentech, Inc., priority 2022, dated 2025).
